Measurements from patent US20240180956A1, “A VAGINAL CONTRACEPTIVE COMPOSITION FOR REINFORCEMENT OF THE CERVICAL MUCUS BARRIER PROPERTIES” (CIRQLE BIOMEDICAL CONTRACEPTION APS, priority 2021, published 2024).

Test system: human ovulatory cervical mucus
Experiment: Sperm penetration through human cervical ovulatory mucus (capillary assay, phase contrast microscopy)
Assay type: cell-based
Conditions: PLL 5 mg/mL in 32.5 mM lactic acid; 30 minutes after exposure to undiluted sperm; vs lactic acid solution alone or untreated
Method: All chitosans were dissolved in a 100 mM or a 32.5 mM lactic acid solution at a concentration of 0.5% (w/v chitosan) and adjusted to pH 5.5 (pH±0.02) by the use of 0.1 or 1 M hydrochloric acid (HCl, Merck KgaA, Germany), and 0.1 or 1 M sodium hydroxide (NaOH, CPAchem Ltd., Bulgaria) or 50% NaOH (Sigma-Aldrich, USA).
Semen samples of patients and volunteers collected at the Andrology, Sexual Medicine, Transmedicine, clinic (ANOVA, Karolinska University Hospital, Sweden) were run through standard semen kinematic analyses and sperm penetration assays no later than 3 h after collection. Data were obtained for the collection time, abstinence time, and semen volume.
Semen was gently liquefied for 30 min on a rocker in an incubation chamber heated up to 37° C., after complete collection of ejaculates by masturbation. The viscosity of semen was determined visually and by pipetting. Semen was microscopically analysed by pipetting 6 μl of specimen in pre-warmed Leja® (Netherland) counting chamber slides (20 micron). Subsequently, specimens were assessed via clinical ECLIPSE 50i microscope (Nikon Instruments, Japan) equipped with stage heater MS 100 (37° C., Linkam Scientific Instruments, UK), 10× objective (Ph1) and 0.5× charge coupled device camera UI-1540LE-M-HQ (IDS Imaging Development Systems GmbH, Germany) with total magnification of 5×. […]

poly-L-lysine [PLL]
sperm detected throughout the capillary filled with ovulatory cervical mucus: Less sperm was detected
